These results are taken from patent US12083092B2, “Antiviral 1,3-di-oxo-indene compounds” (Novartis AG, priority 2020, dated 2024).

Where only a bound is given, the exact number is not on record here.

Series [1] can be described thus: Cytotoxicity in mock-infected cells (MTT/MTS). The format is cell-based. The conditions noted are these: human, read-out: CYTOTOX (EC50 μM). On the procedure: In the assay, HeLa (human cervical cancer cells), MRC-5 (human fetal lung fibroblast cells), and RD cells (derived from human rhabdomyosarcoma) were employed. For comparison, ribavirin (Riv), Pleconaril (pleco), and BTA-798 (BTA) were used as controls. Reagents were dissolved at a concentration of 10-40 mg/ml in 100% dimethyl sulfoxide (DMSO). Water-soluble reagents were dissolved in PBS (−) solution and stored at −20° C. On the day of the experiment, they were used in 3 fold to 5 fold concentrations in such a manner that the concentration of dimethyl sulfoxide in each well was between 0.5% and 1%.
For HeLa cells, the drugs were measured for EC50 (50% maximal effective concentration), which is the concentration of a drug inducing a response halfway between the baseline and maximum, using an MTT assay. With regard to RD and MRC-5 cells, CPE was determined using FDA (Fluorescein diacetate) or MTT. In order to determine the effect of drug toxicity on efficacy results, at the time of inoculation with the virus, mock-infection was also included. A virus-free medium was added to a cell culture, which was then subjected to the same treatment as the virus-infected cells inoculated with the virus. That is, the medium was removed after one hour of incubation, and dilutions of drugs in the medium were added once more. Following incubation for 2-3 days, the cells were observed under a microscope and the drugs were determined for CC50 (50% cytotoxic concentration) at which 50% of the cells were killed, using an MTT assay in which counts of viable cells in mock-infected wells containing drugs were compared to those of viable cells in control wells containing no drugs. In an FDA hydrolysis assay, FDA was added to each well after removal of the medium, and incubated for 20-30 min before fluorescence intensity was measured using a spectrofluorometer to determine CPE in the same manner as in MTT.
That is, the survival rate (% survival) of mock-infected cells for cytotoxicity measurement was calculated using the Mathematical Formula 1 below: Cell Drug=Survival by [A (Drug)−A (Background solution)/A (Cell control)−(Background×100% Solution)]
While 100% cell survival means no cytotoxicity of the drug, the highest cytotoxicity is reflected by 0% cell survival. The 50% cytotoxic concentration was defined as the concentration required to reduce the cell number by 50%. This concentration of the drug is represented as CC50. Higher values mean lower cytotoxicity.
The % CPE value for measuring cytotoxicity of a drug was calculated by Mathematical Formula 4 below: % CPE=100×[OD (CC)−OD (Virus+Compound)/OD (CC)−OD (Blank)] In Mathematical Formulae 3 and 4 above, • OD (CC) represents the OD of the background cell culture that is neither induced by a virus nor treated by chemical, • OD (VC) represents the OD of the control cell culture that is induced by a virus but not treated by chemical, • OD (Virus+Compound) represents the OD of the cell culture infected by a virus that has been treated with a concentrated compound, • OD (Compound) represents the OD of the cell culture that has been treated with a concentrated compound only, and OD (Blank) represents the OD of the well to which only the cell culture has been added.
The effective concentration (EC50) represents the concentration of a drug at which 50% of cells are allowed to survive by CPE of an induced virus, and the cytotoxicity concentration (CC50) represents the concentration of a drug at which a compound has killed 50% of cells, and they were calculated by the logarithmic interpolation.

A further series deals with HRV A16. In words: CPE inhibition assay, HRV A16. It counts as cell-based. The conditions noted are these: Human rhinovirus sp., read-out: A16_CPE (EC50 μM).
In series [2] the test system is coxsackievirus B4 (Cox B4). In words: CPE inhibition assay, coxsackievirus B4. It counts as cell-based. The note with it: Enterovirus B.
A further series has as its system HRV B14. In words: CPE inhibition assay, HRV B14. It counts as cell-based. The note with it: Human rhinovirus sp.
The nature of a further series: C15_C3 REP. The note with it: human, C15 C3 REP (cell-based assay).
Another series relates to poliovirus 1 (PV1). In words: microbe, parasite or virus in culture. The format is cell-based. The conditions noted are these: Enterovirus C, read-out: PV1 (EC50 μM).
For series [3] the following is noted: cited from earlier work.

As usually defined, the EC50 is the concentration at which the effect is half-maximal. Turning to `CC(=O)NC12C(=O)c3c(N)cccc3C1(O)Oc1cc(C(F)(F)F)ccc12` (racemic) [Example 3, N-(1-amino-4b-hydroxy-10-oxo-7-(trifluoromethyl)-4b,10-dihydro-9bH-indeno[1,2-b]benzofuran-9b-yl)acetamide], the CC50 is not below 50 µM in series [1] and 21400 nM in the series “C15_C3 REP”. Also, the EC50 came to 50 µM in the series on HRV A16, 0.00201 µM in series [2] and 0.019 µM with HRV B14.

For the compound `CC(=O)NC12C(=O)c3c(N)cccc3C1(O)Oc1cc(C3CC3)ccc12` (racemic) [Example 7, N-(1-amino-7-cyclopropyl-4b-hydroxy-10-oxo-4b,10-dihydro-9bH-indeno[1,2-b]benzofuran-9b-yl)acetamide], the CC50 in series [1] was not below 50 µM; in the series “C15_C3 REP” it was 50000 nM. Also, the results for the EC50 (in the series on HRV A16; in series [2]; in the series with HRV B14) were 14.7 µM, 0.00168 µM and 0.016 µM, respectively.

As for `CC(=O)NC12C(=O)c3c(N)cccc3C1(O)Oc1cc(OC(F)(F)F)ccc12` (racemic) [Example 10, N-(1-amino-4b-hydroxy-10-oxo-7-(trifluoromethoxy)-4b,10-dihydro-9bH-indeno[1,2-b]benzofuran-9b-yl)acetamide], the CC50 in series [1] is not below 50 µM; in “C15_C3 REP”, 50000 nM. The EC50 in the series with HRV A16 was found to be 39.8 µM; in series [2], 0.00303 µM; in the series on poliovirus 1 (PV1) it was 0.335 µM; in the series with HRV B14 it was 0.056 µM.

Take `CC(=O)NC12C(=O)c3c(N)cccc3C1(O)Oc1cc(Cl)ccc12` (racemic) [Example 13, N-(1-amino-7-chloro-4b-hydroxy-10-oxo-4b,10-dihydro-9bH-indeno[1,2-b]benzofuran-9b-yl)acetamide]: the CC50 in series [1] is not below 50 µM. Moreover, the values for the EC50 (in series [2]; in the series with poliovirus 1 (PV1)) were 0.00267 µM and 0.295 µM, respectively.

`CC(=O)NC12C(=O)c3c(N)cccc3C1(O)Oc1cc(C)ccc12` (racemic) [Example 16, N-(1-amino-4b-hydroxy-7-methyl-10-oxo-4b,10-dihydro-9bH-indeno[1,2-b]benzofuran-9b-yl)acetamide]: in series [1], the CC50 is not below 50 µM. For the same compound, the results for the EC50 (with HRV A16; in series [2]; in the series with HRV B14) were 50 µM, 0.00374 µM and 0.076 µM, respectively.

As to `CC(=O)NC12C(=O)c3c(N)cccc3C1(O)Oc1ccc(C)cc12` (racemic) [Example 19, N-(1-amino-4b-hydroxy-8-methyl-10-oxo-4b,10-dihydro-9bH-indeno[1,2-b]benzofuran-9b-yl)acetamide], the figures for the CC50 (in series [1]; in the series “C15_C3 REP”) were not below 50 µM and 25000 nM, respectively. In addition, the EC50 with HRV A16 was 50 µM; in series [2] it was 0.00871 µM; with poliovirus 1 (PV1), 3.24 µM; with HRV B14 it was 0.666 µM.

As for `CC(=O)N[C@]12C(=O)c3c(N)cccc3[C@@]1(O)Oc1cc(C(C)C)ccc12` (single isomer, unassigned) [Example 1], the CC50 in series [1] is not below 50 µM; in the series “C15_C3 REP” it was 35100 nM. In addition, the EC50 came to 1.89 µM with HRV A16, 0.00061 µM in series [2], 0.015 µM with poliovirus 1 (PV1) and 0.016 µM with HRV B14.

Regarding `CC(=O)N[C@]12C(=O)c3c(N)cccc3[C@@]1(O)Oc1cc(C(F)(F)F)ccc12` (single isomer, unassigned) [Example 4], in series [1], the CC50 was not below 50 µM. Further, the EC50 amounted to 0.00059 µM in series [2] and 0.041 µM in the series with poliovirus 1 (PV1).

As for `CC(=O)N[C@@]12C(=O)c3c(N)cccc3[C@]1(O)Oc1cc(C(F)(F)F)ccc12` (single isomer, unassigned) [Example 5], the CC50 in series [1] is not below 50 µM; in the series “C15_C3 REP”, 25000 nM. Further, the EC50 was determined as 0.0442 µM in series [2] and 9.22 µM in the series with poliovirus 1 (PV1).

Take `CC(=O)N[C@]12C(=O)c3c(N)cccc3[C@@]1(O)Oc1cc(C3CC3)ccc12` (single isomer, unassigned) [Example 8]: the results for the CC50 (in series [1]; in the series “C15_C3 REP”) were not below 50 µM and 50000 nM, respectively. Besides, the EC50 in the series with HRV A16 worked out at 7.85 µM; in series [2], 0.00093 µM; with poliovirus 1 (PV1) it was 0.028 µM; in the series on HRV B14, 0.025 µM.

Turning to `CC(=O)N[C@@]12C(=O)c3c(N)cccc3[C@]1(O)Oc1cc(C3CC3)ccc12` (single isomer, unassigned) [Example 9], the CC50 in series [1] is not below 50 µM; in “C15_C3 REP”, 50000 nM. Also, the EC50 in the series on HRV A16 turned out to be 50 µM; in series [2] it was 0.0862 µM; with HRV B14, 3.21 µM.

As for `CC(=O)N[C@]12C(=O)c3c(N)cccc3[C@@]1(O)Oc1cc(OC(F)(F)F)ccc12` (single isomer, unassigned) [Example 11], the CC50 in series [1] was not below 50 µM. This compound returned an EC50 in series [2] of 0.0011 µM.

Turning to `CC(=O)N[C@@]12C(=O)c3c(N)cccc3[C@]1(O)Oc1cc(OC(F)(F)F)ccc12` (single isomer, unassigned) [Example 12], the CC50 in series [1] was not below 50 µM. In addition, the concentration for a half-maximal effect (EC50) is 1.89 µM with HRV A16, 0.188 µM in series [2], 0.015 µM with poliovirus 1 (PV1) and 0.016 µM in the series with HRV B14.

Regarding `CC(=O)N[C@]12C(=O)c3c(N)cccc3[C@@]1(O)Oc1cc(Cl)ccc12` (single isomer, unassigned) [Example 14], the CC50 in series [1] is not below 50 µM. This compound yielded an EC50 in series [2] of 0.00182 µM.

With `CC(=O)N[C@@]12C(=O)c3c(N)cccc3[C@]1(O)Oc1cc(Cl)ccc12` (single isomer, unassigned) [Example 15], the CC50 in series [1] is not below 50 µM; in “C15_C3 REP”, 25000 nM. Also, the response in series [2] was half-maximal at 0.29 µM (EC50).

On to `CC(=O)N[C@]12C(=O)c3c(N)cccc3[C@@]1(O)Oc1cc(C)ccc12` (single isomer, unassigned) [Example 17], for which the CC50 in series [1] was not below 50 µM. Further, the EC50 in series [2] came out at 0.00174 µM; in the series on poliovirus 1 (PV1) it was 0.11 µM.

For the compound `CC(=O)N[C@@]12C(=O)c3c(N)cccc3[C@]1(O)Oc1cc(C)ccc12` (single isomer, unassigned) [Example 18], the CC50 in series [1] was not below 50 µM; in the series “C15_C3 REP”, 25000 nM. Further, in series [2], a half-maximal response (EC50) required 0.383 µM.

As for `CC(=O)N[C@]12C(=O)c3c(N)cccc3[C@@]1(O)Oc1ccc(C)cc12` (single isomer, unassigned) [Example 20], the CC50 in series [1] is not below 50 µM. For the same compound, the EC50 in series [2] was 0.00443 µM; in the series with poliovirus 1 (PV1), 2.17 µM.

As for `COc1ccc2c(c1)O[C@]1(O)c3cccc(N)c3C(=O)[C@]21NC(C)=O` (single isomer, unassigned) [Example 23], the CC50 in series [1] was not below 50 µM. In addition, in series [2], the EC50 was determined as 0.00293 µM.

Take `CC(C)S(=O)(=O)n1c(N)nc2ccc(/C(=N/O)c3ccccc3)cc21` [Enviroxime]: in series [3] (clinical studies), the “therapeutic effects in clinical studies” value was “insignificant or few therapeutic effects”. Moreover, in series [3] (in vivo), the “pharmacokinetics in clinical studies” value is given as “bad pharmacokinetics” and the “side effects in clinical studies” value is listed as “unwanted side effects”.

Turning to `CC(=O)N[C@]12C(=O)c3c(N)cccc3[C@@]1(O)Oc1cc(Br)ccc12` [Example 6, N-((4bR,9bR)-1-amino-7-bromo-4b-hydroxy-10-oxo-4b,10-dihydro-9bH-indeno[1,2-b]benzofuran-9b-yl)acetamide], the CC50 in series [1] was not below 50 µM; in “C15_C3 REP”, 50000 nM. The EC50 in the series on HRV A16 was 43.3 µM; in series [2], 0.00098 µM; with HRV B14, 0.049 µM.

As to `CC(=O)N(C)C12C(=O)c3c(N)cccc3C1(O)Oc1cc(C(F)(F)F)ccc12` (stereo not drawn) [Example 21, N-(1-amino-4b-hydroxy-10-oxo-7-(trifluoromethyl)-4b,10-dihydro-9bH-indeno[1,2-b]benzofuran-9b-yl)-N-methylacetamide], the figures for the CC50 (in series [1]; in the series “C15_C3 REP”) were not below 50 µM and 25000 nM, respectively. In series [2], this compound returned an EC50 of 0.0032 µM.
